In the NIST ThermoML archive (doi:10.1021/acs.jced.8b01135):
“And” between values parts separate entries of the source, which are not always exact repeats. Equal values may be shown once. Numbers after ± are expanded uncertainties.

Columns and labels:
[1] = 102 kPa, Liquid; for speed of sound: Frequency=3 MHz, Single path-length method; for mass density: Vibrating tube method; for viscosity: Concentric cylinders viscometry
[2] = xn = mol fraction of the nth substance listed; settings: 102 kPa, Liquid, x2 = 0; for speed of sound: Frequency=3 MHz, Single path-length method; for mass density: Vibrating tube method; for viscosity: Concentric cylinders viscometry

CCCCCCCCCCCC [dodecane]
[1]
Settings | mass density | speed of sound [m/s] | viscosity [mPa·s]
288.15 K | 752.35 ± 0.71 kg/m3 | 1317.2 ± 0.7 | –
293.15 K | 748.72 ± 0.71 kg/m3 | 1297.7 ± 0.7 | 1.49 ± 0.03
298.15 K | 745.09 ± 0.71 kg/m3 | 1278.2 ± 0.7 | –
303.15 K | 741.46 ± 0.71 kg/m3 | 1259 ± 0.7 | 1.27 ± 0.03
313.15 K | 734.18 ± 0.71 kg/m3 and 734.19 ± 0.71 kg/m3 | 1221.1 ± 0.7 | 1.08 ± 0.03
323.15 K | 726.88 ± 0.71 kg/m3 | 1184 ± 0.7 | 0.934 ± 0.031
333.15 K | 719.53 ± 0.71 kg/m3 | 1147.8 ± 0.7 | 0.813 ± 0.031

CCCCCCCCCCCC [dodecane] + CCCCCC1CCCCC1
[2]
Settings | mass density [kg/m3] | speed of sound [m/s] | viscosity [mPa·s]
288.15 K | 752.35 ± 0.71 | 1317.2 ± 0.8 | –
293.15 K | 748.72 ± 0.71 | 1297.7 ± 0.8 | 1.49 ± 0.02
298.15 K | 745.09 ± 0.71 | 1278.2 ± 0.8 | –
303.15 K | 741.46 ± 0.71 | 1259 ± 0.8 | 1.27 ± 0.02
313.15 K | 734.19 ± 0.71 | 1221.1 ± 0.8 | 1.08 ± 0.02
323.15 K | 726.88 ± 0.71 | 1184 ± 0.8 | 0.934 ± 0.021
333.15 K | 719.53 ± 0.71 | 1147.8 ± 0.8 | 0.813 ± 0.021

CCCCCC1CCCCC1 [pentylcyclohexane]
[1]
Settings | mass density [kg/m3] | speed of sound [m/s] | viscosity [mPa·s]
288.15 K | 807.78 ± 0.72 | 1365.8 ± 1.1 | –
293.15 K | 804.13 ± 0.72 | 1346 ± 1.1 | 1.69 ± 0.03
298.15 K | 800.48 ± 0.72 | 1326.4 ± 1.1 | –
303.15 K | 796.82 ± 0.72 | 1306.7 ± 1.1 | 1.43 ± 0.03
313.15 K | 789.49 ± 0.72 | 1268.2 ± 1.1 | 1.21 ± 0.03
323.15 K | 782.14 ± 0.72 | 1230.5 ± 1.1 | 1.05 ± 0.03
333.15 K | 774.75 ± 0.72 | 1193.5 ± 1.1 | 0.914 ± 0.031

CCCCCCCCCCCC [dodecane] + CCCCCCCCCCCCC1CCCCC1
[2]
Settings | mass density [kg/m3] | speed of sound [m/s] | viscosity [mPa·s]
288.15 K | 752.35 ± 0.71 | 1317.2 ± 0.8 | –
293.15 K | 748.72 ± 0.71 | 1297.7 ± 0.8 | 1.49 ± 0.02
298.15 K | 745.09 ± 0.71 | 1278.2 ± 0.8 | –
303.15 K | 741.46 ± 0.71 | 1259 ± 0.8 | 1.27 ± 0.02
313.15 K | 734.19 ± 0.71 | 1221.1 ± 0.8 | 1.08 ± 0.02
323.15 K | 726.88 ± 0.71 | 1184 ± 0.8 | 0.934 ± 0.021
333.15 K | 719.53 ± 0.71 | 1147.8 ± 0.8 | 0.813 ± 0.021

CCCCCCCCCCCC [dodecane] + CCCCCCCC1CCCCC1
[2]
Settings | mass density [kg/m3] | speed of sound [m/s] | viscosity [mPa·s]
288.15 K | 752.35 ± 0.71 | 1317.2 ± 0.8 | –
293.15 K | 748.72 ± 0.71 | 1297.7 ± 0.8 | 1.49 ± 0.02
298.15 K | 745.09 ± 0.71 | 1278.2 ± 0.8 | –
303.15 K | 741.46 ± 0.71 | 1259 ± 0.8 | 1.27 ± 0.02
313.15 K | 734.19 ± 0.71 | 1221.1 ± 0.8 | 1.08 ± 0.02
323.15 K | 726.88 ± 0.71 | 1184 ± 0.8 | 0.934 ± 0.021
333.15 K | 719.53 ± 0.71 | 1147.8 ± 0.8 | 0.813 ± 0.021

CCCCCCCCCCC1CCCCC1 [decylcyclohexane]
[1]
Settings | mass density [kg/m3] | speed of sound [m/s] | viscosity [mPa·s]
288.15 K | 821.93 ± 0.71 | 1425.2 ± 0.9 | –
293.15 K | 818.54 ± 0.71 | 1406.4 ± 0.9 | 5.34 ± 0.04
298.15 K | 815.16 ± 0.71 | 1387.7 ± 0.9 | –
303.15 K | 811.78 ± 0.71 | 1369.1 ± 0.9 | 4.09 ± 0.04
313.15 K | 805.02 ± 0.71 | 1332.8 ± 0.9 | 3.23 ± 0.03
323.15 K | 798.26 ± 0.71 | 1297.2 ± 0.9 | 2.6 ± 0.03
333.15 K | 791.49 ± 0.71 | 1262.7 ± 0.9 | 2.15 ± 0.03

CCCCCCC1CCCCC1 [hexylcyclohexane]
[1]
Settings | mass density [kg/m3] | speed of sound [m/s] | viscosity [mPa·s]
288.15 K | 811.34 ± 0.75 | 1380.4 ± 1.4 | –
293.15 K | 807.76 ± 0.75 | 1360.9 ± 1.4 | 2.19 ± 0.03
298.15 K | 804.19 ± 0.75 | 1341.4 ± 1.4 | –
303.15 K | 800.61 ± 0.75 | 1322.1 ± 1.4 | 1.79 ± 0.03
313.15 K | 793.43 ± 0.75 | 1284.2 ± 1.4 | 1.52 ± 0.03
323.15 K | 786.25 ± 0.75 | 1247.1 ± 1.4 | 1.3 ± 0.03
333.15 K | 779.05 ± 0.75 | 1211 ± 1.4 | 1.12 ± 0.03

CCCCCCCCCCCC [dodecane] + CCCCCCCCCCC1CCCCC1
[2]
Settings | mass density [kg/m3] | speed of sound [m/s] | viscosity [mPa·s]
288.15 K | 752.35 ± 0.71 | 1317.2 ± 0.8 | –
293.15 K | 748.72 ± 0.71 | 1297.7 ± 0.8 | 1.49 ± 0.02
298.15 K | 745.09 ± 0.71 | 1278.2 ± 0.8 | –
303.15 K | 741.46 ± 0.71 | 1259 ± 0.8 | 1.27 ± 0.02
313.15 K | 734.19 ± 0.71 | 1221.1 ± 0.8 | 1.08 ± 0.02
323.15 K | 726.88 ± 0.71 | 1184 ± 0.8 | 0.934 ± 0.021
333.15 K | 719.53 ± 0.71 | 1147.8 ± 0.8 | 0.813 ± 0.021
